For orientation: melting point means the temperature of the solid-liquid transition.

`O=C1OCCC1Oc1ccc(Cl)cc1[N+](=O)[O-]` (stereo unspecified) came in with a melting point of 136 to 140 °C.
Compound `CCCC1=C(C(=O)OCC)C(c2ccccc2Cl)c2cn(C(=O)Nc3ccccc3)nc2N1` (stereo unspecified) came in with a melting point of 145 to 147 °C.
To `COc1cc(Nc2nccc(Nc3ccc(N4CCOCC4)cc3)n2)cc(OC)c1OC` belongs 214 °C.
Then `CNC(=O)N(C)C(=O)Nc1ccccc1`, with 93 to 95 °C; and `N#Cc1ccc(-c2c[nH]cn2)cc1`, with 164 to 167 °C; and `COC(=O)CC(NCCN(C)C)C(=O)O` (stereo unspecified), with 164 to 166 °C.
For `N=C(NCc1cccs1)NN=Cc1c(Cl)cccc1Cl`, the melting point is 135 to 137 °C.
`CN1Cc2c(ccc(F)c2Cl)-n2c(c(C#CC(C)(C)O)[nH]c2=O)C1` displayed a melting point of 208 to 209 °C.
Regarding `CCc1ncnc(NC2CCC3(CC2)OCC(CO)O3)c1Cl` (stereo unspecified), the melting point was in the range of 97 to 98 °C.
To `COc1ccc(-c2ccc3c(c2)c2c(C=Cc4ccccc4)ccnc2n3S(=O)(=O)c2ccccc2)cc1` belongs 190 to 192 °C.
`CC=Cc1c(C(C)C)nc(C(C)C)c(CO)c1-c1ccc(F)cc1`: the melting point lay in the range of 46 to 47 °C.
The compound `O=C(O)CC[C@H](NC(=O)c1cc2ccccc2[nH]1)C(=O)NC(c1ccc(Cl)cc1)c1ccc(Cl)cc1` registered a melting point of 207 °C.
`COC(=O)C(Oc1ccc(C(F)(F)F)cc1)c1ccc(OCCOc2ccc(Cl)cc2)cc1` (stereo unspecified) showed a melting point of 95 to 97 °C.
The compound `CCCCN(N)C(=O)NC` registered a melting point of 48 to 50 °C.
For the compound `CCCc1c2nc(C(=O)OC)cc(C(F)(F)C(F)(F)C(F)(F)F)c2cc2c(=O)cc(C(=O)OCC)oc12`, the melting point lay in the range of 144 to 146 °C.
For the compound `CCS(=O)(=O)c1cc2c(cc1OC)CCn1c3c(c(Br)c1-2)CCCCN(C(C)(C)C)C3=O`, the melting point was 227 °C.
Turning to `CCC(CO)Nc1ccc(Cl)cc1[N+](=O)[O-]` (stereo unspecified), the melting point was determined as 45 °C.
`CCN1CCC(NC(=O)c2ccc(NC(C)=O)cc2)N1CC` (stereo unspecified) returned a melting point of 178 to 180 °C.
On to `CCn1nc(O)nc1Cl`, for which the melting point lay in the range of 108 to 110 °C.
`CCOC(=O)c1cc2c([nH]1)CN(C(=O)OCC(Cl)(Cl)Cl)CC2` showed a melting point of 126 to 127 °C.
For `COc1cc(OC)nc(NC(=O)NS(=O)(=O)c2ccccc2C(=O)O)n1`, the melting point was 155 to 157 °C.
Then `N#CCC1CCN1C(c1ccccc1)c1ccccc1` (stereo unspecified), with 82 to 85 °C.
`CCOC(=O)c1c(-c2ccccc2)csc1N1C(=O)c2ccccc2C1=O` came in with a melting point of 163 to 164 °C.
For the compound `CC(C)(C)c1cc(C(=O)Cl)cc(C(C)(C)C)c1O`, the melting point is 90 to 93 °C.
For `CC(=O)Oc1ccc(-c2c3ccccc3cc3sc4ccccc4c23)cc1OC(C)=O`, the melting point is 179 to 180 °C.
To `O=C(Oc1nc(Cl)c(Cl)cc1Cl)C(Cl)(Cl)Cl` belongs 58 to 60 °C; to `COc1ccc(CSc2nnc(-c3ccc4nccn4c3)o2)cc1C(F)(F)F`, 146 to 147 °C.
`Brc1ccc(N2CCN(CCCOc3ccc(C4=NCCO4)cc3)CC2)nn1` displayed a melting point of 169 °C.
Then `O=C(O)C1CCN(S(=O)(=O)c2ccc(Br)cc2)CC1`, with 225 to 227 °C; and `Nc1ccc2[nH]c(=O)ccc2c1`, with 116 to 118 °C.
As to `O=C(N[C@H]1CC[C@H](CCN2CCC(c3cccc4c3CCO4)CC2)CC1)C1CCC1`, the melting point stood at 197 °C.
For `Cc1cc(=O)n(Cc2ccccc2)[nH]c1=O`, the melting point was above 200 °C.
Compound `COC(=O)c1ccc(-c2n[nH]c3c2CCc2nc(C(C)C)c(C(C)C)nc2-3)cc1` showed a melting point of 204 to 206 °C.
For `CCN1CCc2ccc(Nc3ncc(Cl)c(NCCCC(=O)NC)n3)cc2CC1`, the melting point amounted to 135 °C.
As for `O=C1C2CSCC1CN(Cc1ccccc1)C2`, the melting point is 91 to 92 °C.
As for `CC(C)n1cc(-c2nc(C#N)c(N)nc2-c2ccccc2F)ccc1=O`, the melting point was 211 °C.

Source of the values: a melting point compilation (Tetko et al.; mined from patent text by program, amines drawn as free bases though some values may be those of a salt).
